Assay [1] relates to A2780. In words: Antiproliferative activity against D4-9-31 resistance human A2780 cells incubated for 72 hrs by ATPlite reagent based assay. The assay is classed as functional, cell-based. To be noted: A2780, 72 h. In general terms: In ATP-based viability assays light output follows the ATP content of the culture.
Assay [2] relates to A2780. The assay can be described thus: Antiproliferative activity against human A2780 cells incubated for 72 hrs by ATPlite reagent based assay. The assay is classed as functional, cell-based. The note with it: A2780, 72 h.
The subject of assay [3] is A2780. The assay can be described thus: Antiproliferative activity against human A2780 cells incubated for 72 hrs by live-cell imaging based assay. The assay is classed as functional. To be noted: A2780, 72 h.
For assay [4], the system named is A2780. The assay can be described thus: Antiproliferative activity against D4-9-31 resistance human A2780 cells assessed as reduction in mitochondrial respiration. It counts as functional, cell-based.
Assay [5] has as its system A2780. In words: Antiproliferative activity against human A2780 cells assessed as reduction in mitochondrial respiration. It counts as functional, cell-based.

Activity calls are given as the source filed them. The rule behind the calls is not given here.

As a reminder, the EC50 is the concentration needed to bring the measured effect to its halfway point. A high value points to a less potent agent. For `CC(=O)O[C@H]1C(=O)[C@@]2(C)[C@H]([C@H](OC(=O)c3ccccc3)[C@]3(O)C[C@H](OC(=O)[C@H](O)[C@@H](NC(=O)c4ccccc4)c4ccccc4)C(C)=C1C3(C)C)[C@]1(OC(C)=O)CO[C@@H]1C[C@@H]2O` [PACLITAXEL], the EC50 turned out to be 2.4 nM in the assay with A2780 [1] and 2.5 nM with A2780 [2].
The matching figures for `COc1cc2c(c(OC)c1OC)-c1ccc(OC)c(=O)cc1[C@@H](NC(C)=O)CC2` [COLCHICINE]: 8.7 nM and 9.2 nM.
For `C/C(=C\c1csc(C)n1)[C@@H]1C[C@@H]2O[C@]2(C)CCC[C@H](C)[C@H](O)[C@@H](C)C(=O)C(C)(C)[C@@H](O)CC(=O)O1` [PATUPILONE] the same measures were 4 nM and 5.2 nM.
For the compound `Cc1ncc(C(=O)Nc2ccc(-c3cccc(S(=O)(=O)C4CC4)c3)cn2)cn1`, the EC50 in the assay with A2780 [1] is 23 nM; with A2780 [3], 12 nM; with A2780 [2] it was 9.9 nM. Moreover, the outcome in the assay with A2780 [4] and in the assay with A2780 [5] was Active.
With `CC[C@]1(O)C[C@H]2CN(CCc3c([nH]c4ccccc34)[C@@](C(=O)OC)(c3cc4c(cc3OC)N(C=O)[C@H]3[C@@](O)(C(=O)OC)[C@H](OC(C)=O)[C@]5(CC)C=CCN6CC[C@]43[C@@H]65)C2)C1` [VINCRISTINE], the results for the EC50 in the assay on A2780 [1] and with A2780 [2] were 3.9 nM and 3.4 nM, respectively.
The matching figures for `O=C(Nc1ccncc1)C(=O)c1cn(Cc2ccc(Cl)cc2)c2ccccc12` [INDIBULIN]: 20 nM and 19 nM.

(Values after ChEMBL document CHEMBL4665649, “Resistance mechanisms and cross-resistance for a pyridine-pyrimidine amide inhibitor of microtubule polymerization” (Bioorg Med Chem Lett, 2019).)
